In PubChem BioAssay AID192 (DTP/NCI, 2004):
Inconclusive results and toxic doses are left out.

Test system: BDF1 mice, B16 melanoma ip, median survival T/C
Test: NCI In Vivo Anticancer Drug Screen. Data for tumor model B16 Melanoma (intraperitoneal) in B6D2F1 (BDF1) mice
Settings: endpoint: median survival time, higher = longer survival
In short: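 Each result divides a survival or tumor-size measurement in the compound-treated group by the same measurement in the vehicle group.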

[1] = dose: 100.0 mg/kg/injection, schedule: Q01DX009 (ip), vehicle: Klucel (hydroxypropylcellulose) (HPC)
[2] = dose: 200.0 mg/kg/injection, schedule: Q01DX009 (ip), vehicle: Klucel (hydroxypropylcellulose) (HPC)
[3] = dose: 50.0 mg/kg/injection, schedule: Q01DX009 (ip), vehicle: saline with Tween-80
[4] = dose: 50.0 mg/kg/injection, schedule: Q04DX003 (ip), vehicle: saline with Tween-80
[5] = dose: 100.0 mg/kg/injection, schedule: Q01DX009 (ip), vehicle: saline with Tween-80
[6] = dose: 100.0 mg/kg/injection, schedule: Q04DX003 (ip), vehicle: saline with Tween-80
[7] = dose: 200.0 mg/kg/injection, schedule: Q01DX009 (ip), vehicle: saline with Tween-80
[8] = dose: 200.0 mg/kg/injection, schedule: Q04DX003 (ip), vehicle: saline with Tween-80

## CC(C)NC(=O)OCc1c(COC(=O)NC(C)C)c(-c2ccc(Cl)c(Cl)c2)n2c1CCC2
dose: 1.56 mg/kg/injection, schedule: Q01DX009 (ip), vehicle: distilled water + Tween-80
  T/C: 102 % of control
dose: 2.34 mg/kg/injection, schedule: Q01DX009 (ip), vehicle: other
  T/C: 123 % of control
dose: 3.11 mg/kg/injection, schedule: Q01DX009 (ip), vehicle: distilled water + Tween-80
  T/C: 118 % of control
dose: 3.12 mg/kg/injection, schedule: Q01DX009 (ip), vehicle: distilled water + Tween-80
  T/C: 120 % of control
dose: 4.69 mg/kg/injection, schedule: Q01DX009 (ip), vehicle: saline with Tween-80
  T/C: 183 % of control
dose: 9.38 mg/kg/injection, schedule: Q01DX009 (ip), vehicle: other
  T/C: 169 % of control
dose: 9.38 mg/kg/injection, schedule: Q01DX009 (ip), vehicle: saline with Tween-80
  T/C: 173 % of control
dose: 12.5 mg/kg/injection, schedule: Q01DX009 (ip), vehicle: distilled water + Tween-80
  T/C: 168 % of control
dose: 14.4 mg/kg/injection, schedule: Q01DX009 (ip), vehicle: distilled water + Tween-80
  T/C: 179 % of control
dose: 18.75 mg/kg/injection, schedule: Q01DX009 (ip), vehicle: other
  T/C: 197 % of control
dose: 18.75 mg/kg/injection, schedule: Q01DX009 (ip), vehicle: saline with Tween-80
  T/C: 239 % of control
dose: 25.0 mg/kg/injection, schedule: Q01DX009 (ip), vehicle: distilled water + Tween-80
  T/C: 200 % of control
dose: 37.5 mg/kg/injection, schedule: Q01DX009 (ip), vehicle: saline with Tween-80
  T/C: 245 % of control
dose: 40.0 mg/kg/injection, schedule: Q01DX009 (ip), vehicle: distilled water + Tween-80
  T/C: 103 % of control
dose: 50.0 mg/kg/injection, schedule: Q01DX009 (ip), vehicle: distilled water + Tween-80
  T/C: 100 % of control
dose: 75.0 mg/kg/injection, schedule: Q01DX009 (ip), vehicle: saline with Tween-80
  T/C: 215 % of control

## CC1Cc2c(Cl)cc(C(=O)NC(Cc3ccccc3)C(=O)O)c(O)c2C(=O)O1 (stereo not drawn)
dose: 0.12 mg/kg/injection, schedule: Q01DX009 (ip), vehicle: saline with Tween-80
  T/C: 112 % of control
dose: 0.25 mg/kg/injection, schedule: Q01DX009 (ip), vehicle: saline with Tween-80
  T/C: 119 % of control
dose: 0.5 mg/kg/injection, schedule: Q01DX009 (ip), vehicle: saline with Tween-80
  T/C: 114 % of control

## Cc1cc(=O)[nH]c(N/N=C/c2ccccc2)n1
dose: 100.0 mg/kg/injection, schedule: Q04DX003 (ip), vehicle: gum acacia
  T/C: 93 % of control
dose: 200.0 mg/kg/injection, schedule: Q04DX003 (ip), vehicle: gum acacia
  T/C: 88 % of control
dose: 400.0 mg/kg/injection, schedule: Q04DX003 (ip), vehicle: gum acacia
  T/C: 88 % of control

## CCN(C(=O)COc1ccc(Cl)cc1)c1ccccc1C
[1]
  T/C: 96 % of control
[2]
  T/C: 106 % of control
dose: 400.0 mg/kg/injection, schedule: Q01DX009 (ip), vehicle: Klucel (hydroxypropylcellulose) (HPC)
  T/C: 96 % of control

## OC(CCCCl)CC(O)(C(F)(F)F)C(F)(F)F (stereo not drawn)
[3]
  T/C: 111 % of control
[4]
  T/C: 112 % of control
[5]
  T/C: 102 % of control
[6]
  T/C: 115 % of control
[7]
  T/C: 108 % of control
[8]
  T/C: 120 % of control

## CC(=O)Nc1cc2c(cc1[N+](=O)[O-])-c1ccccc1C2O (stereo not drawn)
[4]
  T/C: 105 % of control
[6]
  T/C: 110 % of control
[8]
  T/C: 105 % of control

## CC(C)(C)OC(=O)N1CCCC1C(=O)Oc1ccc([N+](=O)[O-])cc1 (stereo not drawn)
dose: 25.0 mg/kg/injection, schedule: Q04DX003 (ip), vehicle: saline with Tween-80
  T/C: 94 % of control
[4]
  T/C: 109 % of control
[6]
  T/C: 104 % of control

## CC(Br)C(=O)NC(CC(N)=O)C(=O)O (stereo not drawn)
[3]
  T/C: 91 % of control
[5]
  T/C: 104 % of control
[7]
  T/C: 93 % of control

## C=C1CCN(c2ccc(OCC)cc2)C1=O
dose: 4.0 mg/kg/injection, schedule: Q01DX009 (ip), vehicle: saline + alcohol
  T/C: 93 % of control
dose: 8.0 mg/kg/injection, schedule: Q01DX009 (ip), vehicle: saline + alcohol
  T/C: 95 % of control
dose: 16.0 mg/kg/injection, schedule: Q01DX009 (ip), vehicle: saline + alcohol
  T/C: 107 % of control
dose: 32.0 mg/kg/injection, schedule: Q01DX009 (ip), vehicle: saline + alcohol
  T/C: 115 % of control
dose: 64.0 mg/kg/injection, schedule: Q01DX009 (ip), vehicle: saline + alcohol
  T/C: 93 % of control

## CCP(=S)(CC)P(=S)(CC)CC
dose: 50.0 mg/kg/injection, schedule: Q01DX009 (ip), vehicle: Klucel (hydroxypropylcellulose) (HPC)
  T/C: 101 % of control
[1]
  T/C: 112 % of control
[2]
  T/C: 94 % of control
